The values below come from ChEMBL document CHEMBL4699562, “Design, syntheses and evaluations of novel indole derivatives as orally selective estrogen receptor degraders (SERD)” (Bioorg Med Chem Lett, 2020).

Calls of active or inactive are those of the source. The calls are words filed in the database; no cut-off is given here.

For orientation: IC50 means the concentration needed to halve the response being measured. The term clearance denotes a measure of how efficiently the substance is removed, as volume per time. As usually defined, the Vd is a proportionality between amount in the body and measured concentration, not a real space. Read a high Vd as wide distribution into tissue. A word on the AUC(0-t): it is the area under the concentration-time curve up to a stated or last time point. Lower therefore signals low exposure. In general, bioavailability refers to dose-corrected exposure relative to a reference, in per cent. Low values mean poor availability, high ones good availability.

Data set [1] has as its system MCF7. Description: Antiproliferative activity against human MCF7 cells assessed as cell growth inhibition. The format is functional, cell-based.
Data set [2] concerns the target T1, Estrogen receptor (Homo sapiens, UniProt P03372).
T1 sequence (P03372 whole entry): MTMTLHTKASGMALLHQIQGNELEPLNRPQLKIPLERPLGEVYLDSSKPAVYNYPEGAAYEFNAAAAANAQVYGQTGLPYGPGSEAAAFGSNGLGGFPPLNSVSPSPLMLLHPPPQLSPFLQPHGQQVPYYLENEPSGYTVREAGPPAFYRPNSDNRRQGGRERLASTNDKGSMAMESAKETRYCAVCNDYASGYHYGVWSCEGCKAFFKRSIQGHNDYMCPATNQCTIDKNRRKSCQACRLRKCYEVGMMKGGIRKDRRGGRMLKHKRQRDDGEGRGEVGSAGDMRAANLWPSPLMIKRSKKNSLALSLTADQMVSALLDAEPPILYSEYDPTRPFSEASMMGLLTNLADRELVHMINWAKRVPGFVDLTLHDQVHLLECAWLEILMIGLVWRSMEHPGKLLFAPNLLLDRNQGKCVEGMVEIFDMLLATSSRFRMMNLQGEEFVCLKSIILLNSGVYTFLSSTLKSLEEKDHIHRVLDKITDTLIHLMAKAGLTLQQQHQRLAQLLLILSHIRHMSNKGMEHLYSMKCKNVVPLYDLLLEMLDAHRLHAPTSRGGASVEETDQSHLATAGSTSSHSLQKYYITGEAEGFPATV
Description: Induction of estrogen receptor degradation in human MCF7 cells. The class given is cell-based.

Data set [3] has as its target T1, Estrogen receptor. The data set is described as follows: Binding affinity to estrogen receptor (unknown origin).
Data set [4] in a line: Clearance in CD-1 mouse. The following applies: in vivo. The format is ADME.
A short description of data set [5]: Volume of distribution in CD-1 mouse. The format is ADME. The following applies: in vivo.
Data set [6] is described as follows: AUC (0 to last) in CD-1 mouse at 2.5 mg/kg, po. To be noted: in vivo. The format is ADME, organism-based. The arrangement: time 0 - last, route oral, dose 2.5 mg/kg.
Data set [7] is described as follows: Oral bioavailability in CD-1 mouse. The format is ADME, organism-based. The following applies: in vivo.
Data set [8] relates to MCF7. Description: Antitumor activity against human MCF7 cells expressing ER xenografted in BALB/c mouse assessed as tumor growth suppression at 20 mg/kg, po qd administered for 21 days. The format is functional, organism-based. The following applies: time 21.0 day.
For data set [9], the system named is MCF7. Description: Antitumor activity against human MCF7 cells expressing ER xenografted in BALB/c mouse assessed as tumor growth inhibition at 20 mg/kg, po qd administered for 21 days and measured on day 19 relative to control. The format is functional. The following applies: 456 h, time 19 day, read-out: TGI. For orientation: In xenograft studies the graft and the host belong to different species.

For data set [10], the target named is Voltage-gated inwardly rectifying potassium channel KCNH2 (Homo sapiens, UniProt Q12809). The data set is described as follows: Inhibition of human ERG by automatic Q-patch assay.
Sequence of Voltage-gated inwardly rectifying potassium channel KCNH2 (Q12809 whole entry): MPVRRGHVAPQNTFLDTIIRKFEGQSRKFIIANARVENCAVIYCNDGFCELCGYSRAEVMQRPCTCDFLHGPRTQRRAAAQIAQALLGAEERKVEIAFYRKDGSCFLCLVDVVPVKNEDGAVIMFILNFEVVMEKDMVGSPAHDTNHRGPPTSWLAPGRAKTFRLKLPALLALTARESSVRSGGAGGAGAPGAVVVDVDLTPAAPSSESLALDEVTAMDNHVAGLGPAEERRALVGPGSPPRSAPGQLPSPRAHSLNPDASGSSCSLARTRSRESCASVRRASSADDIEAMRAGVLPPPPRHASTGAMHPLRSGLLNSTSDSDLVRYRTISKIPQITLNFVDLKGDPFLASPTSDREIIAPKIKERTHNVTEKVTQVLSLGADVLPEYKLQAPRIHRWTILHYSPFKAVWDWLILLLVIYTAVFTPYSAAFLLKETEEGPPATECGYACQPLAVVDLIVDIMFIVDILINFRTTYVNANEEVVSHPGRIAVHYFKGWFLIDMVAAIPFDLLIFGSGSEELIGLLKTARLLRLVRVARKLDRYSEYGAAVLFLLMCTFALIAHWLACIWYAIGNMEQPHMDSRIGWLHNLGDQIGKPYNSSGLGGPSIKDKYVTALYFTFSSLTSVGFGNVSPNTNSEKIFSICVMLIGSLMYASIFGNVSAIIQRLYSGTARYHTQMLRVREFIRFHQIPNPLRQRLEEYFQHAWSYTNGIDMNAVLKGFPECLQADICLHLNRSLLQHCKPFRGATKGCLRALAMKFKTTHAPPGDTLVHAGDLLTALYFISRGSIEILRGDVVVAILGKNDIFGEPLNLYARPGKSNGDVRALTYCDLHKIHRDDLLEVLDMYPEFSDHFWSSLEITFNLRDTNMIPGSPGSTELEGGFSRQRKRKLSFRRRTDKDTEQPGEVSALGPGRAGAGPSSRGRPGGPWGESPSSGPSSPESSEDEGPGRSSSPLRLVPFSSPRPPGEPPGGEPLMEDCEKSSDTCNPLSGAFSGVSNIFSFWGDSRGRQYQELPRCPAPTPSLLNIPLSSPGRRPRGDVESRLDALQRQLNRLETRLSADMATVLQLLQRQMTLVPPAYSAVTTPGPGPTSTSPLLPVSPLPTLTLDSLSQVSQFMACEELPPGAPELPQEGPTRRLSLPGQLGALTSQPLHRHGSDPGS

On to `CC/C(=C(/c1ccc(/C=C/C(=O)O)cc1)c1cc2ccccc2[nH]1)c1ccc(Cl)c(C)c1`, for which the IC50 amounted to 840 nM in the data set with MCF7 [1] and 1390 nM at Estrogen receptor [2].
As for `CC/C(=C(/c1ccc(/C=C/C(=O)O)cc1)c1cc2ccccc2[nH]1)c1ccccc1C(F)(F)F`, the figures for the IC50 at Estrogen receptor [3], with MCF7 [1] and against Estrogen receptor [2] were 0.87 nM, 8 nM and 4 nM, respectively. Further, the clearance in [4] was 5.54 mL/min/kg. Besides, the Vd in [5] stood at 1.12 L/kg. Further, in [6], the AUC(0-t) stood at 4.21 µM·h. In data set [7], the bioavailability was determined as 25.7%. For the same compound, the inhibition result in the data set with MCF7 [8] is “Active”. Further, the inhibition in vivo at 20 mg/kg in the data set on MCF7 [9] is 112%. Moreover, the “inhibition (INH)” value in data set [10] (human) is listed as “Active”.
Regarding `CC/C(=C(/c1ccc(/C=C/C(=O)O)cc1)c1cc2ccccc2[nH]1)c1ccc(Cl)cc1C#N`, the IC50 at Estrogen receptor [3] was 0.16 nM; in the data set on MCF7 [1], 14 nM; on Estrogen receptor [2] it was 18 nM.
As for `CC/C(=C(/c1ccc(/C=C/C(=O)O)cc1)c1cc2ccccc2[nH]1)c1ccc(F)cc1Cl`, the IC50 was 1.6 nM at Estrogen receptor [3], 39 nM in the data set with MCF7 [1] and 21 nM at Estrogen receptor [2].
`CC/C(=C(/c1ccc(/C=C/C(=O)O)cc1)c1cc2ccccc2[nH]1)c1cccc(C(F)(F)F)c1`: the IC50 at Estrogen receptor [3] stood at 1.75 nM; with MCF7 [1], 325 nM; against Estrogen receptor [2], 131 nM.
For the compound `CC/C(=C(/c1ccc(/C=C/C(=O)O)cc1)c1cc2ccccc2[nH]1)c1ccc(Cl)cc1`, the IC50 at Estrogen receptor [3] was 1.74 nM; in the data set on MCF7 [1] it was 343 nM; against Estrogen receptor [2], 271 nM.
Turning to `CC/C(=C(/c1ccc(/C=C/C(=O)O)cc1)c1cc2ccccc2[nH]1)c1ccccc1`, the figures for the IC50 at Estrogen receptor [3], in the data set with MCF7 [1] and at Estrogen receptor [2] were 0.28 nM, 108 nM and 66.6 nM, respectively.
`CC/C(=C(/c1ccc(/C=C/C(=O)O)cc1)c1cc2ccccc2[nH]1)c1cccc(F)c1C#N`: the values for the IC50 on Estrogen receptor [3], in the data set with MCF7 [1] and at Estrogen receptor [2] were 0.17 nM, 40 nM and 49 nM, respectively.
`CC/C(=C(/c1ccc(/C=C/C(=O)O)cc1)c1cc2ccccc2[nH]1)c1ccc(Cl)cc1C(F)(F)F`: the IC50 is 0.76 nM on Estrogen receptor [3], 4 nM in the data set with MCF7 [1], 2 nM against Estrogen receptor [2] and over 30000 nM in data set [10]. Besides, the clearance in data set [4] was 6.86 mL/min/kg. In addition, the Vd in data set [5] was found to be 1.6 L/kg. In [6], this compound displayed an AUC(0-t) of 6.36 µM·h. In data set [7], this compound yielded a bioavailability of 52.4%. Besides, the inhibition entry in the data set on MCF7 [8] is “Active”. For the same compound, the inhibition in vivo at 20 mg/kg in the data set on MCF7 [9] came to 117%.
As to `CC/C(=C(/c1ccc(/C=C/C(=O)O)cc1)c1cc2ccccc2[nH]1)c1ccc(C#N)cc1Cl`, the results for the IC50 at Estrogen receptor [3], in the data set on MCF7 [1] and against Estrogen receptor [2] were 0.17 nM, 49 nM and 31 nM, respectively.
In the same order, the values of `CC/C(=C(/c1ccc(/C=C/C(=O)O)cc1)c1cc2ccccc2[nH]1)c1ccccc1C` are 0.17 nM, 33 nM and 9 nM.
As to `CC/C(=C(/c1ccc(/C=C/C(=O)O)cc1)c1cc2ccccc2[nH]1)c1ccc(C#N)cc1`, the IC50 in the data set with MCF7 [1] was determined as 278 nM; on Estrogen receptor [2], 723 nM.
Consider `CC/C(=C(/c1ccc(/C=C/C(=O)O)cc1)c1cc2ccccc2[nH]1)c1ccc(C(F)(F)F)cc1`, for which the figures for the IC50 in the data set on MCF7 [1] and against Estrogen receptor [2] were 139 nM and 163 nM, respectively.
Consider `CC/C(=C(/c1ccc(/C=C/C(=O)O)cc1)c1cc2ccccc2[nH]1)c1ccc(Cl)c(C(F)(F)F)c1`, for which the values for the IC50 in the data set on MCF7 [1] and on Estrogen receptor [2] were 2200 nM and 2450 nM, respectively.
`C[C@@H]1Cc2c([nH]c3ccccc23)[C@@H](c2c(F)cc(/C=C/C(=O)O)cc2F)N1CC(C)(C)F` [AZD-9496]: in the data set with MCF7 [1], the IC50 worked out at 0.49 nM.
For `CC/C(=C(/c1ccc(/C=C/C(=O)O)cc1)c1cc2ccccc2[nH]1)c1ccc(Cl)cc1Cl`, the IC50 turned out to be 1.52 nM on Estrogen receptor [3], 11 nM in the data set with MCF7 [1] and 9 nM on Estrogen receptor [2].
`CC/C(=C(/c1ccc(/C=C/C(=O)O)cc1)c1cc2ccccc2[nH]1)c1c(C)cccc1Cl`: the IC50 in the data set on MCF7 [1] was 30 nM; on Estrogen receptor [2] it was 42 nM.
Regarding `CC/C(=C(/c1ccc(/C=C/C(=O)O)cc1)c1cc2ccccc2[nH]1)c1cccc(C)c1`, the figures for the IC50 on Estrogen receptor [3], in the data set on MCF7 [1] and against Estrogen receptor [2] were 1.46 nM, 140 nM and 69 nM, respectively.
`CC/C(=C(/c1ccc(/C=C/C(=O)O)cc1)c1cc2ccccc2[nH]1)c1cccc(OC(F)(F)F)c1`: the values for the IC50 on Estrogen receptor [3], in the data set on MCF7 [1] and against Estrogen receptor [2] were 4.71 nM, 282 nM and 68 nM, respectively.
In the same order, the values of `CC/C(=C(/c1ccc(/C=C/C(=O)O)cc1)c1cc2ccccc2[nH]1)c1ccccc1Cl` are 0.44 nM, 42 nM and 29 nM.
In the same order, the values of `CC/C(=C(/c1ccc(/C=C/C(=O)O)cc1)c1cc2ccccc2[nH]1)c1ccc(OC)cc1` are 0.22 nM, 61 nM and 30 nM.
As for `CC/C(=C(/c1ccc(/C=C/C(=O)O)cc1)c1cc2ccccc2[nH]1)c1cc(Cl)ccc1Cl`, the 50% inhibitory concentration (IC50) at Estrogen receptor [3] stood at 1.4 nM; in the data set on MCF7 [1] it was 71 nM; against Estrogen receptor [2], 25 nM.
For the compound `CC/C(=C(/c1ccc(/C=C/C(=O)O)cc1)c1cc2ccccc2[nH]1)c1ccc(C(F)(F)F)cc1Cl`, the values for the IC50 at Estrogen receptor [3], with MCF7 [1] and on Estrogen receptor [2] were 0.98 nM, 27 nM and 6 nM, respectively.
`CC/C(=C(/c1ccc(/C=C/C(=O)O)cc1)c1cc2ccccc2[nH]1)c1ccccc1C#N`: the IC50 turned out to be 0.24 nM on Estrogen receptor [3], 9 nM in the data set with MCF7 [1] and 9 nM against Estrogen receptor [2].
For `CC/C(=C(/c1ccc(/C=C/C(=O)O)cc1)c1cc2ccccc2[nH]1)c1cccc(Cl)c1Cl`, the IC50 at Estrogen receptor [3] amounted to 3.18 nM; in the data set on MCF7 [1], 898 nM; on Estrogen receptor [2] it was 495 nM.
For `CC/C(=C(/c1ccc(/C=C/C(=O)O)cc1)c1cc2ccccc2[nH]1)c1ccccc1OC(F)(F)F`, the IC50 is 2.41 nM on Estrogen receptor [3], 206 nM with MCF7 [1] and 93 nM on Estrogen receptor [2].
